We go through six molecules from patent US20040019018A1, “Rigid pyrrolidone modulators of pkc” (priority 2003, published 2004).

Holding throughout (test): [3H]PDBu displacement from recombinant PKC isozyme (baculovirus)
Common to all, as to format: binding
Holding throughout (conditions): [3H]PDBu competition

The target in one assay is T1, ε-PKC (Homo sapiens, UniProt Q02156).
T1 sequence (Q02156 1-737): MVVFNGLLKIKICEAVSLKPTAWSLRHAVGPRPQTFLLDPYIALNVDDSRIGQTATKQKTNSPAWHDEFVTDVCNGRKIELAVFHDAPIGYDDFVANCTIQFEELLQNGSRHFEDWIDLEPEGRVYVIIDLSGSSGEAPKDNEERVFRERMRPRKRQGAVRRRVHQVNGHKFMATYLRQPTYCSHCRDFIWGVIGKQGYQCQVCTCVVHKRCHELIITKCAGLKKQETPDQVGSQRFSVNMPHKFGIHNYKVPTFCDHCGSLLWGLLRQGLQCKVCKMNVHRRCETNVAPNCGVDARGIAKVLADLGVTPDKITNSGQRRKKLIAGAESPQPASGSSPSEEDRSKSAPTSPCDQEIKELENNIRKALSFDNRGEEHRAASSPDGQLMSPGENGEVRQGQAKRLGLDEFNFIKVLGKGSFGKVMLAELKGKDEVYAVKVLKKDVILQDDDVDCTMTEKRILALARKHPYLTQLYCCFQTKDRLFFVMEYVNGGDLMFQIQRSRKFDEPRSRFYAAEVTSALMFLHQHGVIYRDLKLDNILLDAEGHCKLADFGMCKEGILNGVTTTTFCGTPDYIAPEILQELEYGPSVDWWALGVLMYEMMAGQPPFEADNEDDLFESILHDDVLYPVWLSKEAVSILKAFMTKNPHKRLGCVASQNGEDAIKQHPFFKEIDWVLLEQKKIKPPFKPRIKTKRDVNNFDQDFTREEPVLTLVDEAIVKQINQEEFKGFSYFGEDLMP
On the procedure:
(§1) The ability of representative compounds of the invention to bind specific isozymes of PKC was determined using an assay (Example 13) in which displacement of [20-^3H]phorbol -12,13-dibutyrate ([^3H]PDBu) from either recombinant PKC isozymes prepared in a Baculovirus system, or unresolved mixture of isozymes of PKC isolated from whole brain extracts, was used. These procedures are described below. […] (See the key that follows)
(§2) Analysis of [20-^3H]phorbol 12,13-dibutyrate binding to PKC. Specific binding of [^3H]PDBu to PKC was carried out as described (Kazanietz, et al., Mol. Pharmacol. 44:298-307 (1993)). [^3H]PDBu (20.0 Ci/mmol) was obtained from New England Nuclear. Phosphatidylserine and bovine […] were obtained from Sigma Chemical Co. Binding was determined in an incubation volume of 250 μl, containing [^3H]PDBu, PKC, 0.05 M Tris-Cl, pH 7.4, 100 μg/ml phosphatidylserine, various concentrations of the ligand being assayed for competition of [^3H]PDBu binding, and bovine […] at 1 mg/ml. In the case of the classical PKCs (α, β, […]) CaCl2 was included at a concentration of 0.1 mM. Liposomes of phosphatidylserine were prepared as follows. The phosphatidylserine solutions were dried down from CHCl3 under a stream of N2. After addition of 0.05 M Tris-Cl, pH 7.4, liposomes were prepared by sonication for 30 sec with the microtip probe of Sonifier Cell Disrupter (Heat Systems-Ultrasonics). [^3H]PDBu was used at a concentration twice the Kd previously determined for the specific receptor. Ligands were assayed over a concentration range of 3 orders of magnitude. Ligands were diluted in 0.05 M Tris-Cl, pH 7.4 containing 1 mg/ml bovine g-globulin. If the compounds were not soluble at the highest concentration used, they were dissolved in organic solvent (CHCl3 or ethanol) and mixed with the phosphatidylserine dissolved in CHCl3. The solvent was removed under a stream of N2.
(§3) Mixed liposomes were then prepared, as described for the preparation of the liposomes of phosphatidylserine alone, by the addition of 0.05 M Tris-Cl, pH 7.4, and sonication for 30 sec with the microtip probe of a Sonifier Cell Disrupter (Heat Systems-Ultrasonics). Incubation was for 5 min at 37° C. The samples were then be cooled to 4° C. for 8 min and 200 μl of 35% polyethylene glycol in 0.05 M Tris-Cl, pH 7.4 (w:w) added. After vigorous mixing, the samples were incubated for 15 min to allow precipitation of the receptor. The precipitate was recovered by centrifugation at 12,000 rpm in a Beckman microcentrifuge at 4° C. A 100 μl aliquot of the supernatant was removed and its radioactivity determined in a Wallac liquid scintillation counter, Model 1409. This value provided a measure of the concentration of unbound [^3H]PDBu. The remainder of the supernatant was removed by aspiration and blotting with absorbent tissue. The tip of the centrifuge tube was cut off and the radioactivity in the pellet measured to determine total bound [^3H]PDBu. Non-specific binding of [^3H]PDBu was measured in the presence of 30 μM non-radioactive PDBu and used to determine an apparent partition coefficient for [^3H]PDBu under these assay conditions.
(§4) Specific binding represents the difference between total binding and the non-specific binding, where the latter value was calculated from the partition coefficient and the measured free [^3H]PDBu concentration in each tube. In each experiment, triplicate determinations were performed at each concentration of competing ligand.

For the next assay, the target named is T2, α-PKC (Homo sapiens, UniProt P17252).
T2 construct: made in house; host or cells: Sf9 cells (baculovirus)
The protocol: as §1, §2, §3, §4

In a further assay the target is T3, γ-PKC (Homo sapiens, UniProt P05129).
T3 construct: made in house; host or cells: Sf9 cells (baculovirus)
On the procedure:
as §1, §2, §3, §4

A word on the Ki: it is a measure of affinity in units of concentration, obtained from inhibition or displacement.

Where “and” joins values, the source holds several entries; their conditions need not be identical. Equal entries are not always repeated. Where only a bound is given, the exact number is not on record here.

On to `CCCCCCCCC#Cc1ccc2c(c1)C(C)(C(C)C)C1C(=O)NC(CO)C21` [Compound 1, (3S, 8R, 9S, 10S)-6-(dec-1′-ynyl)-3-hydroxymethyl-8-isopropyl-8-methyl-3,3a,8,8a-tetrahydro-2H-2-aza-cyclopenta[a]inden-1-one], for which the Ki on ε-PKC is 469 nM and 946 nM; on α-PKC it was 580 ± 214 nM; on γ-PKC, 279 ± 50 nM.
As for `CCCCCCCCCCCC(=O)Oc1ccc2c(c1)[C@](C)(C(C)C)[C@H]1C(=O)N[C@H](CO)[C@@H]21` [Compound 2, (3S, 8R, 9S, 10S)-6-dodecanoyloxyl-3-hydroxymethyl-8-isopropyl-8-methyl-3,3a,8,8a-tetrahydro-2H -2-aza-cyclopenta[a]inden-1-one], the Ki turned out to be 515 ± 155 nM at ε-PKC, 395 ± 71 nM on α-PKC and 209 ± 38 nM on γ-PKC.
Take `CCCCCCCCCCCC(=O)Oc1ccc2c(c1)[C@@](C)(C(C)C)[C@H]1C(=O)N[C@H](CO)[C@@H]21` [Compound 3, (3S, 8S, 9S, 10S)-6-dodecanoyloxyl-3-hydroxymethyl-8-isopropyl-8-methyl-3,3a,8,8a-tetrahydro-2H -2-aza-cyclopenta[a]inden-1-one]: the Ki at ε-PKC is 228 ± 43 nM; at α-PKC, 674 ± 249 nM; at γ-PKC, 327 ± 65 nM.
The like results for `CCCCCCCCCCCC(=O)Oc1cc2c(cc1C(C)=O)[C@@H]1[C@@H](CO)NC(=O)[C@@H]1[C@]2(C)C(C)C` [Compound 4, (3S, 8S, 9S, 10S)-5-acetyl-6-dodecanoyloxyl-3-hydroxymethyl-8-isopropyl-8-methyl-3,3a,8,8a-tetrahydro-2H -2-aza-cyclopenta[a]inden-1-one] were, in that order, 5100 ± 3110 nM, 2250 ± 585 nM and 3650 ± 1090 nM.
The matching figures for `CCCCCCCCCCCC(=O)Oc1cc2c(cc1Br)[C@@H]1[C@@H](CO)NC(=O)[C@@H]1[C@]2(C)C(C)C` [Compound 5, (3S, 8S, 9S, 10S)-5-bromo-6-dodecanoyloxyl-3-hydroxymethyl-8-isopropyl-8-methyl-3,3a,8,8a-tetrahydro-2H -2-aza-cyclopenta[a]inden-1-one]: 1300 ± 377 nM, 2980 ± 1040 nM and 1230 ± 258 nM.
The matching figures for `CCCCCCCCCCCC(=O)Oc1cc2c(cc1C(C)=O)[C@@H]1[C@@H](CO)NC(=O)[C@@H]1[C@@]2(C)C(C)C` [Compound 11, (3S, 8R, 9S, 10S)-5-acetyl-6-dodecanoyloxyl-3-hydroxymethyl-8-isopropyl-8-methyl-3,3a,8,8a-tetrahydro-2H -2-aza-cyclopenta[a]inden-1-one]: greater than 10000 nM, greater than 10000 nM and greater than 10000 nM.
